We go through 11 molecules from patent US12565490B2, “Inhibitors of Receptor Interacting Protein Kinase I for the treatment of disease” (Board of Regents, The University of Texas System, priority 2020, dated 2026).

Usually IC50 stands for the concentration at which inhibition is half-maximal.

Molecules are shown by their SMILES.

This assay relates to human monocytic cell line U937. The assay is described as follows: Human U937 cellular necroptosis assay. In kind it is cell-based. The settings on record: U-937; U937 cells stimulated with 25 ng/mL human TNFalpha and 25 μM z-VAD-FMK; 22 hr; viability by Cell Titer-Glo 2.0; read-out: hU937 IC50. A digest of the protocol:
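U937 cells (5000/well) driven to necroptosis by 25 ng/mL human TNFalpha plus 25 μM z-VAD-FMK alongside 1:3-diluted compounds, 22 hr at 37° C, 5% CO2. Viability by CellTiter-Glo luminescence; IC50 from four-parameter logistic fit.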
With `CN1C(=O)[C@@H](NC(=O)c2ncc(Cl)c(-c3cc(F)ccc3F)n2)COc2ccc(Oc3cnn(C)c3)cc21` [Example 161, (S)-5-chloro-4-(2,5-difluorophenyl)-N-(5-methyl-7-((1-methyl-1H-pyrazol-4-yl)oxy)-4-oxo-2,3,4,5-tetrahydrobenzo[b]-[1,4]oxazepin-3-yl)pyrimidine-2-carboxamide], the IC50 was 9 nM.
On to `CN1C(=O)[C@@H](NC(=O)c2ncc(CN)c(-c3ccccc3)n2)COc2cc(Cl)cnc21` [Example 162, (S)-5-(aminomethyl)-N-(8-chloro-5-methyl-4-oxo-2,3,4,5-tetrahydropyrido[3,2-b][1,4]oxazepin-3-yl)-4-phenylpyrimidine-2-carboxamide], for which the IC50 amounted to 122 nM.
On to `CN1C(=O)[C@@H](NC(=O)c2ncc(Cl)c([C@@H]3COCCO3)n2)COc2cc(Cl)cnc21` [Example 163a, 5-chloro-N—((S)-8-chloro-5-methyl-4-oxo-2,3,4,5-tetrahydropyrido[3,2-b][1,4]oxazepin-3-yl)-4-((R)-1,4-dioxan-2-yl)pyrimidine-2-carboxamide], for which the IC50 is 172 nM.
Consider `Cc1cnc(C(=O)N[C@H]2COc3cc(Cl)cnc3N(C)C2=O)nc1C1COCCO1` (stereo partly drawn) [Example 164, N—((S)-8-chloro-5-methyl-4-oxo-2,3,4,5-tetrahydropyrido[3,2-b][1,4]oxazepin-3-yl)-4-(1,4-dioxan-2-yl)-5-methylpyrimidine-2-carboxamide], for which the IC50 came to 357 nM.
As to `CN1C(=O)[C@@H](NC(=O)c2ncc(Cl)c(-c3cc(F)c(CO)c(F)c3)n2)COc2cc(F)cnc21` [Example 166, (S)-5-chloro-4-(3,5-difluoro-4-(hydroxymethyl)phenyl)-N-(8-fluoro-5-methyl-4-oxo-2,3,4,5-tetrahydropyrido[3,2-b][1,4]oxazepin-3-yl)pyrimidine-2-carboxamide], the IC50 was 196 nM.
For the molecule `O=C(N[C@H]1COc2cc(F)cnc2NC1=O)c1ncc(Cl)c(-c2ccc(F)cc2F)n1` [Example 167, (S)-5-chloro-4-(2,4-difluorophenyl)-N-(8-fluoro-4-oxo-2,3,4,5-tetrahydropyrido[3,2-b][1,4]oxazepin-3-yl)pyrimidine-2-carboxamide], the IC50 was determined as 464 nM.
Regarding `[2H]C([2H])([2H])N1C(=O)[C@@H](NC(=O)c2ncc(Cl)c(-c3cccc(F)c3F)n2)COc2cc(F)cnc21` [Example 168, (S)-5-chloro-4-(2,3-difluorophenyl)-N-(8-fluoro-5-(methyl-d3)-4-oxo-2,3,4,5-tetrahydropyrido[3,2-b][1,4]oxazepin-3-yl)pyrimidine-2-carboxamide], the IC50 is 45.2 nM.
As to `[2H]C([2H])([2H])c1cnc(C(=O)N[C@H]2COc3cc(F)cnc3N(C([2H])([2H])[2H])C2=O)nc1-c1ccccc1F` [Example 169, (S)—N-(8-fluoro-5-(methyl-d3)-4-oxo-2,3,4,5-tetrahydropyrido[3,2-b][1,4]oxazepin-3-yl)-4-(2-fluorophenyl)-5-(methyl-d3)pyrimidine-2-carboxamide], the IC50 is 20.9 nM.
Then `[2H]C([2H])([2H])N1C(=O)[C@@H](NC(=O)c2ncc(C)c(-c3ccccc3F)n2)COc2cc(F)cnc21` [Example 170, (S)—N-(8-fluoro-5-(methyl-d3)-4-oxo-2,3,4,5-tetrahydropyrido[3,2-b][1,4]oxazepin-3-yl)-4-(2-fluorophenyl)-5-methylpyrimidine-2-carboxamide], with 15.8 nM; and `Cc1cnc(C(=O)N[C@H]2COc3ccc(S(C)(=O)=O)cc3N(C)C2=O)nc1-c1ccccc1F` [Example 171, (S)-4-(2-fluorophenyl)-5-methyl-N-(5-methyl-7-(methylsulfonyl)-4-oxo-2,3,4,5-tetrahydrobenzo[b][1,4]oxazepin-3-yl)pyrimidine-2-carboxamide], with 120 nM.
Then `Cc1cnc(C(=O)N[C@H]2COc3cc(Cl)cnc3N(C)C2=O)nc1C1CC(F)(F)CCN1` (stereo partly drawn) [Example 172, N—((S)-8-chloro-5-methyl-4-oxo-2,3,4,5-tetrahydropyrido[3,2-b][1,4]oxazepin-3-yl)-4-(4,4-difluoropiperidin-2-yl)-5-methylpyrimidine-2-carboxamide], with 175 nM.
